These results are taken from ChEMBL document CHEMBL1148662, “Activation of mitogen activated protein kinase (MAPK) during D-galactosamine intoxication in the rat liver” (2006).

Assay [1] relates to Rattus norvegicus. The assay can be described thus: Increase in hepatic vitamin C level in Wistar rat at 1 g/kg, ip after 12 hrs relative to control. It counts as functional.
The subject of assay [2] is Rattus norvegicus. The assay can be described thus: Increase in plasma glutamate pyruvate transaminase level in Wistar rat at 1 g/kg, ip after 1.5 hrs relative to control. It counts as functional.
Assay [3] relates to Rattus norvegicus. Nature of the assay: Increase in phosphorylated JNK level in Wistar rat at 1 g/kg, ip after 3 hrs relative to control. It counts as functional, organism-based.
The subject of assay [4] is Rattus norvegicus. Nature of the assay: Increase in plasma glutamate oxaloacetate transaminase level in Wistar rat at 1 g/kg, ip after 3 hrs relative to control. It counts as functional.
Assay [5] has as its system Rattus norvegicus. Nature of the assay: Increase in plasma glutamate pyruvate transaminase level in Wistar rat at 1 g/kg, ip after 6 hrs relative to control. It counts as functional.
Assay [6] relates to Rattus norvegicus. Nature of the assay: Increase in hepatic vitamin C level in Wistar rat at 1 g/kg, ip after 3 hrs relative to control. It counts as functional.
The test system of assay [7] is Rattus norvegicus. Nature of the assay: Increase in plasma glutamate pyruvate transaminase level in Wistar rat at 1 g/kg, ip after 12 hrs relative to control. It counts as functional.
In assay [8] the test system is Rattus norvegicus. The assay can be described thus: Increase in hepatic vitamin C level in Wistar rat at 1 g/kg, ip after 24 hrs relative to control. It counts as functional.
The test system of assay [9] is Rattus norvegicus. The assay can be described thus: Increase in plasma glutamate pyruvate transaminase level in Wistar rat at 1 g/kg, ip after 3 hrs relative to control. It counts as functional.
In assay [10] the test system is Rattus norvegicus. The assay can be described thus: Increase in plasma glutamate oxaloacetate transaminase level in Wistar rat at 1 g/kg, ip after 12 hrs relative to control. It counts as functional.
Assay [11] has as its system Rattus norvegicus. The assay can be described thus: Increase in plasma glutamate pyruvate transaminase level in Wistar rat at 1 g/kg, ip after 24 hrs relative to control. It counts as functional.
The test system of assay [12] is Rattus norvegicus. The assay can be described thus: Increase in phosphorylated p38 MAPK level in Wistar rat at 1 g/kg, ip after 6 hrs relative to control. It counts as functional, organism-based.
The subject of assay [13] is Rattus norvegicus. The assay can be described thus: Increase in hepatic vitamin C level in Wistar rat at 1 g/kg, ip after 6 hrs relative to control. It counts as functional.
The subject of assay [14] is Rattus norvegicus. Nature of the assay: Increase in plasma glutamate oxaloacetate transaminase level in Wistar rat at 1 g/kg, ip after 6 hrs relative to control. It counts as functional.
For assay [15], the system named is Rattus norvegicus. The assay can be described thus: Increase in phosphorylated ERK level in Wistar rat at 1 g/kg, ip after 3 hrs relative to control. It counts as functional, organism-based.
Assay [16] deals with Rattus norvegicus. The assay can be described thus: Increase in plasma glutamate oxaloacetate transaminase level in Wistar rat at 1 g/kg, ip after 1.5 hrs relative to control. It counts as functional.
For assay [17], the system named is Rattus norvegicus. The assay can be described thus: Increase in hepatic vitamin C level in Wistar rat at 1 g/kg, ip after 1.5 hrs relative to control. It counts as functional.
Assay [18] deals with Rattus norvegicus. Nature of the assay: Increase in plasma glutamate oxaloacetate transaminase level in Wistar rat at 1 g/kg, ip after 24 hrs relative to control. It counts as functional.

Active and inactive are the calls of the source. No cut-off for these calls is given here.

Consider `N[C@H]1C(O)O[C@H](CO)C(O)[C@@H]1O` (single isomer, unassigned) [GLUCOSAMINE], for which the Activity is listed as 1104 nmol/g in the assay with Rattus norvegicus [1]; 25.8 nmol/g in the assay with Rattus norvegicus [2]; 124 nmol/g in the assay on Rattus norvegicus [4]; 295 nmol/g in the assay on Rattus norvegicus [5]; 1137 nmol/g in the assay on Rattus norvegicus [6]; 426 nmol/g in the assay on Rattus norvegicus [7]. The Activity in the assay with Rattus norvegicus [8] is recorded as 978 nmol/g; in the assay on Rattus norvegicus [9], 49.7 nmol/g; with Rattus norvegicus [10], 793 nmol/g; in the assay on Rattus norvegicus [11], 1519 nmol/g; in the assay on Rattus norvegicus [13], 1118 nmol/g; with Rattus norvegicus [14] it was 517 nmol/g. Further, the figures for the Activity with Rattus norvegicus [16], with Rattus norvegicus [17] and in the assay on Rattus norvegicus [18] were 52.3 nmol/g, 1571 nmol/g and 2560 nmol/g, respectively. In addition, the result in the assay with Rattus norvegicus [3], in the assay with Rattus norvegicus [12] and in the assay on Rattus norvegicus [15] was Active.
